Experimental data: the supplement of paper PMC10307832

Tests used:
Experiment in all cases: relative viability (nuclei count vs DMSO), 5 days (fraction); higher = more cells survive
A549 = tested on: A549
In short: (§1)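 The day after seeding in 1536-well plates, lung cancer cell lines were treated by pin tool with a single drug, or with a fixed anchor-drug dose together with five library-drug doses (not always all listed) in √10 steps. After 5 days, a combined fix-and-stain solution (final 0.05% Triton X-100, 1% formaldehyde, 1 ug/ml Hoechst) was added. Nuclei counted on 4× images gave relative viability as treated counts over vehicle counts, reported as the median of duplicate plates.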

ABC-1 = tested on: ABC-1
In short: as §1

COR-L23 = tested on: COR-L23
In short: as §1

ChaGo-K-1 = tested on: ChaGo-K-1
In short: as §1

NCI-H1437 = tested on: NCI-H1437
In short: as §1

NCI-H1623 = tested on: NCI-H1623
In short: as §1

NCI-H1651 = tested on: NCI-H1651
In short: as §1

SK-MES-1 = tested on: SK-MES-1
In short: as §1

SW 1573 = tested on: SW 1573
In short: as §1

Calu-6 = tested on: Calu-6
In short: as §1

EBC-1 = tested on: EBC-1
In short: as §1

IA-LM = tested on: IA-LM
In short: as §1

NCI-H1299 = tested on: NCI-H1299
In short: as §1

NCI-H1703 = tested on: NCI-H1703
In short: as §1

O=c1cc(N2CCOCC2)oc2c(-c3cccc4c3sc3ccccc34)cccc12 + N=C(N)NC(=N)NCCc1ccccc1 [Phenformin] (partner 250 µM)
relative viability (A549; first compound 0.01 µM): 0.201 | relative viability (A549; first compound 0.03162 µM): 0.143 | relative viability (A549; first compound 0.1 µM): 0.0905 | relative viability (A549; first compound 0.3162 µM): 0.167 | relative viability (A549; first compound 1 µM): 0.183 | relative viability (ABC-1; first compound 0.01 µM): 0.228 | relative viability (ABC-1; first compound 0.03162 µM): 0.258 | relative viability (ABC-1; first compound 0.1 µM): 0.225 | relative viability (ABC-1; first compound 0.3162 µM): 0.28 | relative viability (ABC-1; first compound 1 µM): 0.266 | relative viability (COR-L23; first compound 0.01 µM): 0.439 | relative viability (COR-L23; first compound 0.03162 µM): 0.466 | relative viability (COR-L23; first compound 0.1 µM): 0.43 | relative viability (COR-L23; first compound 0.3162 µM): 0.411 | relative viability (COR-L23; first compound 1 µM): 0.449 | relative viability (ChaGo-K-1; first compound 0.01 µM): 0.401 | relative viability (ChaGo-K-1; first compound 0.03162 µM): 0.579 | relative viability (ChaGo-K-1; first compound 0.1 µM): 0.386 | relative viability (ChaGo-K-1; first compound 0.3162 µM): 0.547 | relative viability (ChaGo-K-1; first compound 1 µM): 0.468 | relative viability (NCI-H1437; first compound 0.01 µM): 0.32 | relative viability (NCI-H1437; first compound 0.03162 µM): 0.323 | relative viability (NCI-H1437; first compound 0.1 µM): 0.298 | relative viability (NCI-H1437; first compound 0.3162 µM): 0.338 | relative viability (NCI-H1437; first compound 1 µM): 0.282 | relative viability (NCI-H1623; first compound 0.01 µM): 0.565 | relative viability (NCI-H1623; first compound 0.03162 µM): 0.619 | relative viability (NCI-H1623; first compound 0.1 µM): 0.324 | relative viability (NCI-H1623; first compound 0.3162 µM): 0.585 | relative viability (NCI-H1623; first compound 1 µM): 0.545 | relative viability (NCI-H1651; first compound 0.01 µM): 0.315 | relative viability (NCI-H1651; first compound 0.03162 µM): 0.366 | relative viability (NCI-H1651; first compound 0.1 µM): 0.352 | relative viability (NCI-H1651; first compound 0.3162 µM): 0.345 | relative viability (NCI-H1651; first compound 1 µM): 0.333 | relative viability (SK-MES-1; first compound 0.01 µM): 0.652 | relative viability (SK-MES-1; first compound 0.03162 µM): 0.688 | relative viability (SK-MES-1; first compound 0.1 µM): 0.688 | relative viability (SK-MES-1; first compound 0.3162 µM): 0.671 | relative viability (SK-MES-1; first compound 1 µM): 0.668 | relative viability (SW 1573; first compound 0.01 µM): 0.451 | relative viability (SW 1573; first compound 0.03162 µM): 0.395 | relative viability (SW 1573; first compound 0.1 µM): 0.426 | relative viability (SW 1573; first compound 0.3162 µM): 0.326 | relative viability (SW 1573; first compound 1 µM): 0.343

O=c1cc(-c2cccc3c2Sc2ccccc2S3)oc(N2CCOCC2)c1 + COc1cc2c(Oc3ccc(NC(=O)C4(C(=O)Nc5ccc(F)cc5)CC4)cc3F)ccnc2cc1OCCCN1CCOCC1 [Foretinib] (partner 0.25 µM)
relative viability (A549; first compound 0.08 µM): 1 | relative viability (A549; first compound 0.253 µM): 1.06 | relative viability (A549; first compound 0.8 µM): 1.15 | relative viability (A549; first compound 2.53 µM): 0.978 | relative viability (A549; first compound 8 µM): 1.03 | relative viability (ABC-1; first compound 0.08 µM): 1.25 | relative viability (ABC-1; first compound 0.253 µM): 1.17 | relative viability (ABC-1; first compound 0.8 µM): 1.2 | relative viability (ABC-1; first compound 2.53 µM): 1.04 | relative viability (ABC-1; first compound 8 µM): 1.31 | relative viability (COR-L23; first compound 0.08 µM): 0.946 | relative viability (COR-L23; first compound 0.253 µM): 1.11 | relative viability (COR-L23; first compound 0.8 µM): 1.1 | relative viability (COR-L23; first compound 2.53 µM): 0.971 | relative viability (COR-L23; first compound 8 µM): 1.17 | relative viability (Calu-6; first compound 0.08 µM): 0.916 | relative viability (Calu-6; first compound 0.253 µM): 0.963 | relative viability (Calu-6; first compound 0.8 µM): 0.932 | relative viability (Calu-6; first compound 2.53 µM): 0.867 | relative viability (Calu-6; first compound 8 µM): 0.799 | relative viability (ChaGo-K-1; first compound 0.08 µM): 0.883 | relative viability (ChaGo-K-1; first compound 0.253 µM): 0.98 | relative viability (ChaGo-K-1; first compound 0.8 µM): 1.03 | relative viability (ChaGo-K-1; first compound 2.53 µM): 0.88 | relative viability (ChaGo-K-1; first compound 8 µM): 0.861 | relative viability (EBC-1; first compound 0.08 µM): 0.106 | relative viability (EBC-1; first compound 0.253 µM): 0.0935 | relative viability (EBC-1; first compound 0.8 µM): 0.104 | relative viability (EBC-1; first compound 2.53 µM): 0.105 | relative viability (EBC-1; first compound 8 µM): 0.111 | relative viability (IA-LM; first compound 0.08 µM): 1.45 | relative viability (IA-LM; first compound 0.253 µM): 1.33 | relative viability (IA-LM; first compound 0.8 µM): 1.32 | relative viability (IA-LM; first compound 2.53 µM): 1.04 | relative viability (IA-LM; first compound 8 µM): 1.23 | relative viability (NCI-H1299; first compound 0.08 µM): 1.09 | relative viability (NCI-H1299; first compound 0.253 µM): 1.13 | relative viability (NCI-H1299; first compound 0.8 µM): 1.15 | relative viability (NCI-H1299; first compound 2.53 µM): 1.09 | relative viability (NCI-H1299; first compound 8 µM): 1.1 | relative viability (NCI-H1437; first compound 0.08 µM): 1.27 | relative viability (NCI-H1437; first compound 0.253 µM): 1.41 | relative viability (NCI-H1437; first compound 0.8 µM): 1.32 | relative viability (NCI-H1437; first compound 2.53 µM): 1.23 | relative viability (NCI-H1437; first compound 8 µM): 1.33 | relative viability (NCI-H1623; first compound 0.08 µM): 0.834 | relative viability (NCI-H1623; first compound 0.253 µM): 0.865 | relative viability (NCI-H1623; first compound 0.8 µM): 0.765 | relative viability (NCI-H1623; first compound 2.53 µM): 0.866 | relative viability (NCI-H1623; first compound 8 µM): 0.917 | relative viability (NCI-H1651; first compound 0.08 µM): 0.798 | relative viability (NCI-H1651; first compound 0.253 µM): 0.909 | relative viability (NCI-H1651; first compound 0.8 µM): 0.861 | relative viability (NCI-H1651; first compound 2.53 µM): 0.754 | relative viability (NCI-H1651; first compound 8 µM): 0.979 | relative viability (NCI-H1703; first compound 0.08 µM): 0.348 | relative viability (NCI-H1703; first compound 0.253 µM): 0.421 | relative viability (NCI-H1703; first compound 0.8 µM): 0.273 | relative viability (NCI-H1703; first compound 2.53 µM): 0.321 | relative viability (NCI-H1703; first compound 8 µM): 0.334 | relative viability (SK-MES-1; first compound 0.08 µM): 0.952 | relative viability (SK-MES-1; first compound 0.253 µM): 1.13 | relative viability (SK-MES-1; first compound 0.8 µM): 0.645 | relative viability (SK-MES-1; first compound 2.53 µM): 0.611 | relative viability (SK-MES-1; first compound 8 µM): 0.775 | relative viability (SW 1573; first compound 0.08 µM): 0.8 | relative viability (SW 1573; first compound 0.253 µM): 0.916 | relative viability (SW 1573; first compound 0.8 µM): 0.783 | relative viability (SW 1573; first compound 2.53 µM): 0.989 | relative viability (SW 1573; first compound 8 µM): 1
